Type in all cases: in vivo
Assay [1] relates to Cabbage Looper (Trichoplusia ni). The experiment in a line: Bioassay on Cabbage Looper (CL), 128-well diet tray assay. The settings on record: Cabbage Looper, Table ABC, read-out: CL rating. The essentials: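 Second-instar larvae, one to five per well, placed on artificial diet surface-treated with 50 μg/cm^2 compound in acetone-water, eight wells per compound. Held 5-7 days at 25° C, 14:10 light-dark; percent mortality per well averaged across wells.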

In assay [2] the test system is Yellow Fever Mosquito (Aedes aegypti). The experiment in a line: Bioassay on Yellow Fever Mosquito (YFM) larvae, 96-well plate. The settings on record: Table ABC. The method, boiled down: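 About 1-day-old larvae in water with liver powder were added to wells holding compound from a 4000 ppm DMSO master diluted in 90:10 water:acetone. Plates covered and kept at room temperature for 3 days, then each well scored for mortality on a rating scale.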

For assay [3], the system named is Beet Armyworm (Spodoptera exigua). The assay can be described thus: Bioassay on Beet Armyworm (BAW), 128-well diet tray assay. The settings on record: Beet Armyworm, Table ABC, read-out: BAW rating. The essentials:
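Second-instar larvae (one to five per well) placed on artificial diet surface-treated with 50 μg/cm^2 test molecule in 90:10 acetone-water, dried, eight wells per molecule. Held at 25° C, 14:10 light-dark, five to seven days; percent mortality recorded per well and averaged across the eight wells.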

With `CN(CC(F)(F)F)C(=O)C1(NC(=O)c2ccc(/C(F)=C/C(c3ccc(Cl)c(Cl)c3)C(F)(F)F)cc2C(F)(F)F)CC1` (stereo not drawn) [F120, (Z)-4-(3-(3,4-Dichlorophenyl)-1,4,4,4-tetrafluorobut-1-en-1-yl)-N-(1-(methyl(2,2,2-trifluoroethyl)carbamoyl)cyclopropyl)-2-(trifluoromethyl)benzamide], the pest or weed control at 50 µg/cm2 in assay [1] and in assay [3] was 50 to 100% in each case. The YFM rating result in assay [2] was “B (More than 0-Less than 80)”.

As to `CN(CC(F)(F)F)C(=O)C1(NC(=O)c2ccc(/C(F)=C/C(c3cc(Cl)c(F)c(Cl)c3)C(F)(F)F)cc2C(F)(F)F)CC1` (stereo not drawn) [F114, (Z)-4-(3-(3,5-Dichloro-4-fluorophenyl)-1,4,4,4-tetrafluorobut-1-en-1-yl)-N-(1-(methyl(2,2,2-trifluoroethyl)carbamoyl)cyclopropyl)-2-(trifluoromethyl)benzamide], the pest or weed control at 50 µg/cm2 in assay [1] and in assay [3] was 50 to 100% each time. Further, in assay [2], the YFM rating result was “A (80-100)”.

`O=C(NCC(=S)NCC(F)(F)F)c1ccc(/C(F)=C/C(c2cc(Cl)c(Cl)c(Cl)c2)C(F)(F)F)cc1C(F)(F)F` (stereo not drawn) [PF94, (Z)-4-(1,4,4,4-tetrafluoro-3-(3,4,5-trichlorophenyl)but-1-en-1-yl)-N-(2-thioxo-2-((2,2,2-trifluoroethyl)amino)ethyl)-2-(trifluoromethyl)benzamide]: the pest or weed control at 50 µg/cm2 in assay [1] and in assay [3] was 50 to 100% in each case. Moreover, in assay [2], the YFM rating entry is listed as “A (80-100)”.

Take `O=C(CNC(=O)c1ccc(/C(F)=C/C(c2ccc(Cl)c(Cl)c2)C(F)(F)F)cc1C(F)(F)F)NCC(F)(F)F` (stereo not drawn) [F43, (Z)-4-(3-(3,4-Dichlorophenyl)-1,4,4,4-tetrafluorobut-1-en-1-yl)-N-(2-oxo-2-((2,2,2-trifluoroethyl)amino)ethyl)-2-(trifluoromethyl)benzamide]: the pest or weed control at 50 µg/cm2 in assay [1] and in assay [3] was 50 to 100% throughout. Also, the YFM rating entry in assay [2] is listed as “A (80-100)”.

In the case of `Cc1cc(C(/C=C(\F)c2ccc(C(=O)NC3(C(=O)NCC(F)(F)F)CC3)c(C(F)(F)F)c2)C(F)(F)F)cc(Cl)c1Cl` (stereo not drawn) [PF15], the pest or weed control at 50 µg/cm2 in assay [1] and in assay [3] was 50 to 100% each time. In assay [2], the YFM rating entry was “B (More than 0-Less than 80)”.

With `C[C@@H](NC(=O)c1ccc(/C(F)=C/C(c2cc(Cl)c(F)c(Cl)c2)C(F)(F)F)cc1C(F)(F)F)C(=O)NCC(F)(F)F` (stereo partly drawn) [F36, 4-((Z)-3-(3,5-Dichloro-4-fluorophenyl)-1,4,4,4-tetrafluorobut-1-en-1-yl)-N—((R)-1-oxo-1-((2,2,2-trifluoroethyl)amino)propan-2-yl)-2-(trifluoromethyl)benzamide], the pest or weed control at 50 µg/cm2 in assay [1] and in assay [3] was 50 to 100% each time. Besides, the YFM rating result in assay [2] was “A (80-100)”.

Consider `C[C@@H](NC(=O)c1ccc(/C(F)=C/C(c2cc(Cl)c(F)c(Cl)c2)C(F)(F)F)cc1C(F)(F)F)C(=O)N(C)CC(F)(F)F` (stereo partly drawn) [F81, 4-((Z)-3-(3,5-Dichloro-4-fluorophenyl)-1,4,4,4-tetrafluorobut-1-en-1-yl)-N—((R)-1-(methyl(2,2,2-trifluoroethyl)amino)-1-oxopropan-2-yl)-2-(trifluoromethyl)benzamide], for which the pest or weed control at 50 µg/cm2 in assay [1] and in assay [3] was 50 to 100% throughout. Besides, the YFM rating result in assay [2] was “A (80-100)”.

In the case of `C=Cc1c(Cl)cc(C(/C=C(\F)c2ccc(C(=O)N[C@H](C)C(=O)NCC(F)(F)F)c(C(F)(F)F)c2)C(F)(F)F)cc1Cl` (stereo partly drawn) [F52, 4-((Z)-3-(3,5-Dichloro-4-vinylphenyl)-1,4,4,4-tetrafluorobut-1-en-1-yl)-N—((R)-1-oxo-1-((2,2,2-trifluoroethyl)amino)propan-2-yl)-2-(trifluoromethyl)benzamide], the pest or weed control at 50 µg/cm2 in assay [1] and in assay [3] was 50 to 100% each time. The YFM rating result in assay [2] is “A (80-100)”.

For `CN(CC(F)(F)F)C(=O)CNC(=O)c1ccc(/C(F)=C/C(c2ccc(Cl)c(Br)c2)C(F)(F)F)cc1C(F)(F)F` (stereo not drawn) [PF35, (Z)-4-(3-(3-Bromo-4-chlorophenyl)-1,4,4,4-tetrafluorobut-1-en-1-yl)-N-(2-(methyl(2,2,2-trifluoroethyl)amino)-2-oxoethyl)-2-(trifluoromethyl)benzamide], the pest or weed control at 50 µg/cm2 in assay [1] and in assay [3] was 50 to 100% each time. Also, the YFM rating result in assay [2] is “B (More than 0-Less than 80)”.

As for `C[C@@H](NC(=O)c1ccc(/C(F)=C/C(c2cc(Br)c(Cl)c(Br)c2)C(F)(F)F)cc1C(F)(F)F)C(=O)N(C)CC(F)(F)F` (stereo partly drawn) [F78, 4-((Z)-3-(3,5-Dibromo-4-chlorophenyl)-1,4,4,4-tetrafluorobut-1-en-1-yl)-N—((R)-1-(methyl(2,2,2-trifluoroethyl)amino)-1-oxopropan-2-yl)-2-(trifluoromethyl)benzamide], the pest or weed control at 50 µg/cm2 in assay [1] and in assay [3] was 50 to 100% each time. For the same compound, the YFM rating entry in assay [2] is reported as “A (80-100)”.

For `C[C@@H](NC(=O)c1ccc(/C(F)=C/C(c2cc(Cl)c(Cl)c(Cl)c2)C(F)(F)F)c2ccccc12)C(=O)NCC(F)(F)F` (stereo partly drawn) [PF1, N—((R)-1-Oxo-1-((2,2,2-trifluoroethyl)amino)propan-2-yl)-4-((Z)-1,4,4,4-tetrafluoro-3-(3,4,5-trichlorophenyl)but-1-en-1-yl)-1-naphthamide], the pest or weed control at 50 µg/cm2 in assay [1] and in assay [3] was 50 to 100% throughout. Also, the YFM rating result in assay [2] is recorded as “A (80-100)”.

For the compound `O=C(NC1(C(=O)NCC(F)(F)F)CC1)c1ccc(/C(F)=C/C(c2cc(Cl)cc(Br)c2)C(F)(F)F)cc1C(F)(F)F` (stereo not drawn) [F116, (Z)-4-(3-(3-Bromo-5-chlorophenyl)-1,4,4,4-tetrafluorobut-1-en-1-yl)-N-(1-((2,2,2-trifluoroethyl)carbamoyl)cyclopropyl)-2-(trifluoromethyl)benzamide], the pest or weed control at 50 µg/cm2 in assay [1] and in assay [3] was 50 to 100% throughout. Also, the YFM rating entry in assay [2] is reported as “A (80-100)”.

On to `CN(CC(F)(F)F)C(=O)CNC(=O)c1ccc(/C(F)=C/C(c2ccc(Cl)c(Cl)c2)C(F)(F)F)cc1C(F)(F)F` (stereo not drawn) [F74, (Z)-4-(3-(3,4-Dichlorophenyl)-1,4,4,4-tetrafluorobut-1-en-1-yl)-N-(2-(methyl(2,2,2-trifluoroethyl)amino)-2-oxoethyl)-2-(trifluoromethyl)benzamide], for which the pest or weed control at 50 µg/cm2 in assay [1] and in assay [3] was 50 to 100% in each case. Besides, in assay [2], the YFM rating result is “A (80-100)”.

As for `C[C@@H](NC(=O)c1ccc(/C(F)=C/C(c2ccc(Cl)c(Br)c2)C(F)(F)F)cc1C(F)(F)F)C(=O)NCC(F)(F)F` (stereo partly drawn) [F138, 4-((Z)-3-(3-Bromo-4-chlorophenyl)-1,4,4,4-tetrafluorobut-1-en-1-yl)-N—((R)-1-oxo-1-((2,2,2-trifluoroethyl)amino)propan-2-yl)-2-(trifluoromethyl)benzamide], the pest or weed control at 50 µg/cm2 in assay [1] and in assay [3] was 50 to 100% throughout. Also, in assay [2], the YFM rating entry is recorded as “A (80-100)”.

The values are drawn from US10251394B2, “Molecules having pesticidal utility, and intermediates, compositions, and processes, related thereto” (Dow AgroSciences LLC, priority 2016, dated 2019).
